In brackets after ≈: the same amount, converted by molar mass.
Columns and labels:
[1] = test system: WT Mtb Erdman; type: cell-based, M. tuberculosis; details: area under the dose-response curve
[2] = test system: mixed mmpL3 mutant pool (24 unique Mtb mmpL3 mutants); type: cell-based, M. tuberculosis
[3] = test system: H37Rv; assay: microbe, parasite or virus in culture; type: cell-based; details: Mycobacterium tuberculosis, read-out: MIC
[4] = test system: Erdman (mmpR5 E21K); type: cell-based, M. tuberculosis
[5] = test system: Mtb H37Rv; type: cell-based, M. tuberculosis
[6] = test system: H37Rv (rpoB S450L); type: cell-based, M. tuberculosis
[7] = test system: H37Rv (gyrA D94K); type: cell-based, M. tuberculosis
[8] = test system: Mtb; details: cited from earlier work

With CC(C)N(C(=O)COc1nc2cc(Cl)c(Cl)cc2[nH]1)C(C)C [MSU-43170] the “WT AUC” value [1] was 247.5 and the “Mixed mmpL3 AUC” value [2] was 160.3.
In the case of COc1nc2ccc(Br)cc2cc1[C@@H](c1ccccc1)[C@@](O)(CCN(C)C)c1cccc2ccccc12 [Bedaquiline], the MIC [3] is reported as 2 µg/mL (≈ 3.6 µM), the EC50 [4] is reported as 0.91 µM and the “Frequency of resistance, 2 × MIC” value [5] is reported as 1.43 × 10^−7. For the same molecule, the “Frequency of resistance, 8 × MIC” value [5] was 3.57 × 10^−8 and the “Frequency of resistance, 16 × MIC” value [5] was 3.57 × 10^−8.
With NNC(=O)c1ccncc1 [Isoniazid] the MIC [3] was 0.125 µg/mL (≈ 0.911 µM), the “MIC, H37Rv (rpoB S450L)” value [6] was 0.4 µM (≈ 0.0549 µg/mL) and the “MIC, H37Rv (gyrA D94K)” value [7] was 0.2 µM (≈ 0.0274 µg/mL). For the same molecule, the “Frequency of resistance, 2 × MIC” value [5] was 5.0 × 10^−6, the “Frequency of resistance, 8 × MIC” value [5] was 3.93 × 10^−6 and the “Frequency of resistance, 16 × MIC” value [5] was 2.71 × 10^−6. For the same molecule, the “in vitro frequency of resistance (FoR)” value [8] was 10^−6.
In the case of Cc1ccc2nc(SCC(=O)N(C(C)C)C(C)C)[nH]c2c1 [HC2183], the “WT AUC” value [1] is reported as 101.7 and the “Mixed mmpL3 AUC” value [2] is reported as 34.08.
With O=[N+]([O-])c1cn2c(n1)OC[C@@H](OCc1ccc(OC(F)(F)F)cc1)C2 [Pretomanid] the MIC [3] was 0.5 µg/mL (≈ 1.39 µM), the “Frequency of resistance, 2 × MIC” value [5] was 1.79 × 10^−6 and the “Frequency of resistance, 8 × MIC” value [5] was 8.57 × 10^−7. For the same molecule, the “Frequency of resistance, 16 × MIC” value [5] was 1.43 × 10^−7.
In the case of CC1COc2c(N3CCN(C)CC3)c(F)cc3c(=O)c(C(=O)O)cn1c23 (centres unmarked) [Ofloxacin], the MIC [3] is reported as 1 µg/mL (≈ 2.77 µM), the “Frequency of resistance, 2 × MIC” value [5] is reported as 5.36 × 10^−7 and the “Frequency of resistance, 8 × MIC” value [5] is reported as 7.14 × 10^−8. For the same molecule, the “Frequency of resistance, 16 × MIC” value [5] was 3.57 × 10^−8.
In the case of COc1c(N2C[C@@H]3CCCN[C@@H]3C2)c(F)cc2c(=O)c(C(=O)O)cn(C3CC3)c12 [Moxifloxacin], the “MIC, H37Rv (rpoB S450L)” value [6] is reported as 0.15 µM (≈ 0.0602 µg/mL) and the “MIC, H37Rv (gyrA D94K)” value [7] is reported as over 5.0 µM.
Molecule CC(C)/N=c1\cc2n(-c3ccc(Cl)cc3)c3ccccc3nc-2cc1Nc1ccc(Cl)cc1 [Clofazimine] has an EC50 [4] of 1.6 µM.
In the case of Cc1cc2nc(SCC(=O)N(C(C)C)C(C)C)[nH]c2cc1C [MSU-42766], the MIC [3] is reported as 0.5 µg/mL (≈ 1.57 µM), the “MIC, H37Rv (rpoB S450L)” value [6] is reported as 0.8 µM (≈ 0.256 µg/mL) and the “activity (MIC) against the rpoB S450L strain” value [6] is reported as 0.25 µg/mL. The “MIC, H37Rv (gyrA D94K)” value [7] was 1.5 µM (≈ 0.479 µg/mL), the EC50 [4] was 1.8 µM and the “Frequency of resistance, 2 × MIC” value [5] was 1.36 × 10^−6. For the same molecule, the “Frequency of resistance, 8 × MIC” value [5] was 8.0 × 10^−8, the “Frequency of resistance, 16 × MIC” value [5] was 0 and the “WT AUC” value [1] was 169.9. For the same molecule, the “Mixed mmpL3 AUC” value [2] was 73.44.
For CO[C@H]1/C=C/O[C@@]2(C)Oc3c(C)c(O)c4c(O)c(c(/C=N/N5CCN(C)CC5)c(O)c4c3C2=O)NC(=O)/C(C)=C\C=C\[C@H](C)[C@H](O)[C@@H](C)[C@@H](O)[C@@H](C)[C@H](OC(C)=O)[C@@H]1C [Rifampicin], the MIC [3] was 0.5 µg/mL (≈ 0.608 µM), the “Frequency of resistance, 2 × MIC” value [5] was 5.36 × 10^−7 and the “Frequency of resistance, 8 × MIC” value [5] was 7.14 × 10^−8. The “Frequency of resistance, 16 × MIC” value [5] was 3.57 × 10^−8.
For CC[C@@H](CO)NCCN[C@@H](CC)CO [Ethambutol], the MIC [3] was 1 µg/mL (≈ 4.89 µM), the “Frequency of resistance, 2 × MIC” value [5] was 3.61 × 10^−6 and the “Frequency of resistance, 8 × MIC” value [5] was 8.57 × 10^−7. For the same molecule, the “Frequency of resistance, 16 × MIC” value [5] was 1.79 × 10^−8.
For CC(C)N(C(=O)CNc1nc2cc(Cl)c(Cl)cc2[nH]1)C(C)C [MSU-43165], the “WT AUC” value [1] was 214.5 and the “Mixed mmpL3 AUC” value [2] was 147.2.

— PMC10783087 (Microbiology Spectrum, 2023)
